According to paper PMC3057096 (Bioorganic & medicinal chemistry, 2010):

Key:
[1] = tested on: P. berghei (sensitive strain); assay: In vivo blood-schizontocidal antimalarial activity, rodent malaria model; parameters: species or system mice; conditions: for P. berghei: mice cured: dose of 25 mg/kg
P. falciparum (W2) = assay type: cell-based; conditions: Plasmodium falciparum, W2, read-out: P. falciparum (W2) IC50
β-hematin (BH) formation = assay: Inhibition of β-hematin; assay type: biochemical; conditions: read-out: BH inhibition IC50
[2] = rodents; cited from earlier work
[3] = cited from earlier work
P. falciparum (D6) = assay type: cell-based; conditions: Plasmodium falciparum, D6, read-out: P. falciparum (D6) IC50
Staphylococcus aureus = assay: In vitro antibacterial susceptibility testing; assay type: cell-based; conditions: read-out: S. aureus IC50, 50% growth inhibition
[4] = tested on: methicillin-resistant Staphylococcus aureus ATCC 43300 (MRSA); assay: In vitro antibacterial susceptibility testing; assay type: cell-based; conditions: ATCC43300|MRSA, read-out: MRSA MIC, NA = no activity at highest test concentration of 20 μg/mL

SMILES: COc1cc(NC(C)CCCNCCNCCNCCCC(C)Nc2cc(OC)cc3cccnc23)c2ncccc2c1.Cl.Cl (centres unmarked) [Compound 79, N^1,N^1′-(iminodiethane-2,1-diyl)bis[N^4-(6-methoxyquinolin-8-yl)pentane-1,4-diamine]·2HCl]
- P. berghei in vivo activity class ([1]; 10 mg/kg/day × 4, oral): Suppressive
- P. berghei in vivo activity class ([1]; 25 mg/kg/day × 4, oral): Curative
- P. berghei in vivo activity class ([1]; 50 mg/kg/day × 4, oral): Curative
- P. berghei in vivo activity class ([1]; 100 mg/kg/day × 4, oral): Curative
- P. berghei: mice cured [1]: 100%

SMILES: COc1cc(NC(C)CCCNCOC(=O)NCCCC(C)Nc2cc(OC)cc3cccnc23)c2ncccc2c1.Cl.Cl (centres unmarked) [Compound 76, ({4-[(6-Methoxyquinolin-8-yl)amino]pentyl}amino)methyl{4-[(6-methoxy-quinolin-8-yl)amino]pentyl}carbamate·2HCl]
- P. berghei in vivo activity class ([1]; 100 mg/kg/day × 4, oral): Suppressive

SMILES: COc1cc(NC(C)CCCNC(=O)NC(=O)NCCCC(C)Nc2cc(OC)cc3cccnc23)c2ncccc2c1.Cl.Cl (centres unmarked) [Compound 74, N,N′-Bis{4-[(6-methoxyquinolin-8-yl)amino]pentyl}dicarbonimidic diamide·2HCl]
- P. berghei in vivo activity class ([1]; 100 mg/kg/day × 4, oral): Inactive

SMILES: COc1cc(NC(C)CCCNC(=O)C[C@H](N)C(=O)NCCCC(C)Nc2cc(OC)cc3ccc(C(C)(C)C)nc23)c2nc(C(C)(C)C)ccc2c1.Cl (stereo partly drawn) [Compound 62, N^1,N^4-Bis{4-[(2-tert-butyl-6-methoxyquinolin-8-yl)amino]pentyl}-L-aspartamide·3HCl]
- IC50 (P. falciparum (W2)): 3.2 µg/mL
- P. berghei in vivo activity class ([1]; 100 mg/kg/day × 4, oral): Inactive

SMILES: COc1cc(NC(C)CCCNC(=O)CC[C@H](N)C(=O)NCCCC(C)Nc2cc(OC)cc3ccc(C(C)(C)C)nc23)c2nc(C(C)(C)C)ccc2c1.Cl (stereo partly drawn) [Compound 63, N^1,N^5-Bis{4-[(2-tert-butyl-6-methoxyquinolin-8-yl)amino]pentyl}-L-glutamamide·3HCl]
- P. berghei in vivo activity class ([1]; 100 mg/kg/day × 4, oral): Inactive

SMILES: COc1cc(NC(C)CCCN)c2ncccc2c1 (centres unmarked) [PQ, primaquine]
- IC50 (β-hematin (BH) formation): > 1000 µM
- time at which two major metabolites start appearing in the blood [2]: about 30 min
- half life [3]: 4 to 6 h

SMILES: COc1cc(NC(C)CCCNC(=O)C[C@@H](N)C(=O)NCCCC(C)Nc2cc(OC)cc3cccnc23)c2ncccc2c1.Cl (stereo partly drawn) [Compound 64, N^1,N^4-Bis{4-[(6-methoxyquinolin-8-yl)amino]pentyl}-D-aspartamide·3HCl]
- IC50 (P. falciparum (W2)): 3.6 µg/mL

SMILES: COc1cc(NC(C)CCCNC(=O)N[C@@H](CCCN)C(=O)NCCCC(C)Nc2cc(OC)cc3ccc(C(C)(C)C)nc23)c2nc(C(C)(C)C)ccc2c1.Cl (stereo partly drawn) [Compound 42, N-{4-[(2-tert-butyl-6-methoxyquinolin-8-yl)amino]pentyl}-N^2-({4-[(2-tert-butyl-6methoxyquinolin-8-yl)amino]pentyl}carbamoyl)-D-ornithinamide·3HCl]
- IC50 (P. falciparum (W2)): 3.2 µg/mL

SMILES: COc1cc(NC(C)CCCNC(=O)N[C@H](CCCCN)C(=O)NCCCC(C)Nc2cc(OC)cc3ccc(C(C)(C)C)nc23)c2nc(C(C)(C)C)ccc2c1.Cl (stereo partly drawn) [Compound 43, N-{4-[(2-tert-butyl-6-methoxyquinolin-8-yl)amino]pentyl}-N^2-({4-[(2-tert-butyl-6methoxyquinolin-8-yl)amino]pentyl}carbamoyl)-L-lysinamide·3HCl]
- IC50 (P. falciparum (D6)): 1.6 µg/mL
- IC50 (Staphylococcus aureus): 1.78 to 2.73 µg/mL
- P. berghei in vivo activity class ([1]; 100 mg/kg/day × 4, oral): Suppressive

SMILES: COc1cc(NC(C)CCCNC(=S)NCCCC(C)Nc2cc(OC)cc3cccnc23)c2ncccc2c1.Cl.Cl (centres unmarked) [Compound 67, 1,3-Bis{4-[(6-methoxyquinolin-8-yl)amino]pentyl}thiourea·2HCl]
- MIC [4]: 5 to 20 µg/mL

SMILES: CCCCCOc1c(OC)cc(NC(C)CCCNC(=S)NCCCC(C)Nc2cc(OC)c(OCCCCC)c3c(CC)ccnc23)c2nccc(CC)c12.Cl.Cl (centres unmarked) [Compound 71, 1,3-Bis{4-[4-ethyl-6-methoxy-5-(pentyloxy)quinolin-8-ylamino]pentyl}-thiourea·2HCl]
- MIC [4]: 5 to 20 µg/mL

SMILES: COc1cc(NC(C)CCCNC(=O)N[C@H](CCCCN)C(=O)NCCCC(C)Nc2cc(OC)cc3cccnc23)c2ncccc2c1.Cl (stereo partly drawn) [Compound 38, N-{4-[(6-methoxyquinolin-8-yl)amino]pentyl}-N^2-({4-[(6-methoxyquinolin-8-yl)-amino]pentyl}carbamoyl)-L-lysinamide·3HCl]
- IC50 (P. falciparum (D6)): 3.6 µg/mL

SMILES: COc1cc(NC(C)CCCNC(=O)N[C@@H](CCCN)C(=O)NCCCC(C)Nc2cc(OC)cc3cccnc23)c2ncccc2c1.Cl (stereo partly drawn) [Compound 37, N-{4-[(6-methoxyquinolin-8-yl)amino]pentyl}-N^2-({4-[(6-methoxyquinolin-8-yl)-amino]pentyl}carbamoyl)-D-ornithinamide·3HCl]
- P. berghei in vivo activity class ([1]; 100 mg/kg/day × 4, oral): Inactive

SMILES: COc1cc(NC(C)CCCNC(=O)c2cncc(C(=O)NCCCC(C)Nc3cc(OC)cc4ccc(C(C)(C)C)nc34)c2)c2nc(C(C)(C)C)ccc2c1.Cl (centres unmarked) [Compound 85, N,N′-Bis{4-[(2-tert-butyl-6-methoxyquinolin-8-yl)amino]pentyl}pyridine-3,5-dicarboxamide·3HCl]
- IC50 (P. falciparum (D6)): 2.7 µg/mL
- IC50 (P. falciparum (W2)): 1.8 µg/mL

SMILES: COc1cc(NC(C)CCCNC(=O)N[C@@H](CCCNC(=N)N)C(=O)NCCCC(C)Nc2cc(OC)cc3cccnc23)c2ncccc2c1.Cl (stereo partly drawn) [Compound 36, N-{4-[(6-methoxyquinolin-8-yl)amino]pentyl}-N^2-({4-[(6-methoxyquinolin-8-yl)-amino]pentyl}carbamoyl)-D-argininamide·3HCl]
- IC50 (P. falciparum (D6)): 3.2 µg/mL
- IC50 (P. falciparum (W2)): 1.8 µg/mL
- P. berghei in vivo activity class ([1]; 50 mg/kg/day × 4, oral): Inactive
- P. berghei in vivo activity class ([1]; 100 mg/kg/day × 4, oral): Curative

SMILES: COc1cc(NC(C)CCCNC(=O)NCCCC(C)Nc2cc(OC)cc3cccnc23)c2ncccc2c1.Cl.Cl (centres unmarked) [Compound 66, 1,3-Bis{4-[(6-methoxyquinolin-8-yl)amino]pentyl}urea·2HCl]
- P. berghei in vivo activity class ([1]; 100 mg/kg/day × 4, oral): Inactive

SMILES: COc1cc(NC(C)CCCNC(=O)NCCCC(C)Nc2cc(OC)cc3ccc(C(C)(C)C)nc23)c2nc(C(C)(C)C)ccc2c1.Cl.Cl (centres unmarked) [Compound 68, 1,3-Bis{4-[(2-tert-butyl-6-methoxyquinolin-8-yl)amino]pentyl}urea·2HCl]
- IC50 (P. falciparum (W2)): 3.7 µg/mL
- P. berghei in vivo activity class ([1]; 100 mg/kg/day × 4, oral): Inactive

SMILES: COc1cc(NC(C)CCCNC(=O)CC[C@H](N)C(=O)NCCCC(C)Nc2cc(OC)cc3cccnc23)c2ncccc2c1.Cl (stereo partly drawn) [Compound 61, N^1,N^5-Bis{4-[(6-methoxyquinolin-8-yl)amino]pentyl}-L-glutamamide·3HCl]
- IC50 (P. falciparum (D6)): 2.7 µg/mL
- IC50 (P. falciparum (W2)): 2.2 µg/mL
- P. berghei in vivo activity class ([1]; 10 mg/kg/day × 4, oral): Suppressive
- P. berghei in vivo activity class ([1]; 25 mg/kg/day × 4, oral): Curative
- P. berghei in vivo activity class ([1]; 50 mg/kg/day × 4, oral): Curative
- P. berghei in vivo activity class ([1]; 100 mg/kg/day × 4, oral): Curative
- P. berghei: mice cured [1]: 100%
